Where two headings read alike, the source gives them in different places.
Assays:
[1] = system: HDACs (HeLa nuclear extract); test: HDAC deacetylation inhibition assay, HeLa nuclear extract with BOC-Ac-Lys-AMC substrate; assay type: biochemical, human
Description: With these N^ɛ-acetyl lysine derivatives in hand (schemes 1–3), we then did the pilot screening for general HDAC inhibitory activity at a compound's concentration of 100 µM. All tested compounds were subjected to the inhibition assay against the HDAC deacetylation reaction by using a HeLa nuclear extract as a source of HDACs and BOC-Ac-Lys-AMC as a substrate.
HDACS inhibition assay in vitro
In vitro HDACs inhibition assays were conducted as previously described. In brief, 4 μL of […]
(1μL), then fluorogenic substrate Boc-Lys(acetyl)-AMC (100 μM) and Buffer A (50 mM Tis-HCl pH=8.0, 150 mM NaCl, 30 mM KCl, 10 mM MgCl2) were added. After incubation at 37℃ for 1h, […]
(§1) And then incubation at 37℃ for 1h, the mixture was stopped by the addition of 50 μL of Buffer B (200mM HCl/300 mM Acetic acid), fluorescence intensity was measured using a microplate reader at excitation and emission wavelengths of 360 nm and 460 nm. The inhibition ratios were calculated from the fluorescence intensity readings of tested wells relative to those of control wells, […]
regression analysis of the concentration/inhibition data. All experiments were done in triplicate. […]

[2] = system: HDACⅠ; test: HDAC subtype selectivity assay with subtype substrate, HDACⅠ; assay type: biochemical, human; details: 1μM; Hela nuclear extract; substrate of corresponding subtype
Text: (§2) against both tumor cells and normal cells, then calculate and compare their selective index.” […]
(§3) of Supporting Information.
(§4) Reponses to Reviewer 2’s comments
(§5) Reviewer 2 is also very positive about the manuscript. We thank the reviewer for the helpful comments and careful reading of the manuscript. Our changes and/or responses are detailed below.
(§6) Comment 1: “Should add some discussion about whether the synthesized compounds intend to be pan- or specific- HDAC inhibitors.”
(§7) S1 of Supporting Information.
(§8) Comment 2: “ The cellular data is just described for the acetylation level of tubulin which is only relevant […]
as §1
(§9) The rate of cell survival under the action of test substances was evaluated by an improved MTS assay as previously described. […]
(§10) 48 hours 5ul of MTS reagent solution was added into each well and the cells were incubated for another 4 hours at 37℃ under 5% CO2 environment. The absorbance was measured at 490 nm in […]

[3] = system: HDACⅡa; test: HDAC subtype selectivity assay with subtype substrate, HDACⅡa; assay type: biochemical, human; details: 1μM; Hela nuclear extract; substrate of corresponding subtype
Text: as §2, §3, §4, §5, §6, §7, §8, §1, §9, §10

[4] = target: T1, HDAC8 (Homo sapiens, UniProt Q9BY41); test: HDAC subtype selectivity assay with subtype substrate, HDAC8; assay type: biochemical; details: 1μM; Hela nuclear extract; substrate of corresponding subtype; read-out: HDAC Inhibition (%) HDAC8
T1 construct: Hela nuclear extract; endogenous in cells; host or cells: HeLa nuclear extract
T1 sequence (Q9BY41 1-377): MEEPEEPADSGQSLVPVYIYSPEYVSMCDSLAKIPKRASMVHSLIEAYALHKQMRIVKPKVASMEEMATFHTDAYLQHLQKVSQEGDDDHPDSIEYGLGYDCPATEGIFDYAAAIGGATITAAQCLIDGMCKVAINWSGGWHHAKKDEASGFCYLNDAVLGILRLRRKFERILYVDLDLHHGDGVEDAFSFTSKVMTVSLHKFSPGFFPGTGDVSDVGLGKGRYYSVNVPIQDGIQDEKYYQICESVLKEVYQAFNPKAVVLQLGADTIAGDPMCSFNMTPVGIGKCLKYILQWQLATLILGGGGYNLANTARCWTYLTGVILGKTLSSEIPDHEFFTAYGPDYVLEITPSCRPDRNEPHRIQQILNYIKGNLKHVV

[5] = system: cellular HDACs in K562 cells; test: Western blotting of acetylation levels of histone H3 and α-tubulin in K562 cells; assay type: cell-based, human; details: 50, 100 and 200 µM for 24 h
Description: (§11) Therefore, hydroxamic acid 18c was engaged in western blotting analysis to evaluate the acetylation levels of histone H3 and α-tubulin.
(§12) Figure 3. […]
(§13) a Microplate to determine the cell viability. The absorbance was directly proportional to the number of viable cells. All experiments were done in triplicate. […]
(§14) calculate and compare their selective index.
(§15) Respectively, A549 and K562 cells were harvested with three different concentrations of […]
(§16) DMEM with 10% FBS (fetal bovine serum) for 24 hours. DMSO was used as the control. Later the cell pellets were collected by centrifuge at 1000 rpm for 5 minutes and then washed by ice-cold PBS (phosphate-buffered saline) twice. The PBS solution was drained and the cell pellets were re-suspended with ice-cold cell lysate buffer (50 mM Tis-HCl PH=7.4, 150 mM NaCl, 1 mM EDTA, 10% glycerin, 1% tirtion 100 and protease inhibitors cocktail) and Vortex blending five times for 30 seconds each over a period of 30 minutes kept on ice. The samples were later centrifuged at 12,000×g for 10 minutes at 4 °C and the supernatants in each tube were collected and placed in a fresh tube kept on ice. BCA (bicinchoninic acid) assay was used to determine the total protein amount. […]
(§17) were removed by washing and a secondary antibody conjugated to an enzyme, a fluorophore was used for detection. The detected signal from the protein: antibody: antibody complex was […]

[6] = system: cellular HDACs in A549 cells; test: Western blotting of acetylation levels of histone H3 and α-tubulin in A549 cells; assay type: cell-based, human; details: 50, 100 and 200 µM for 24 h
Description: as §11, §12, §13, §14, §15, §16, §17

[7] = system: K562 cells; test: MTS cell proliferation assay, K562; assay type: cell-based, human
Description: (§18) Because of the great anti-tumour potential of HDAC inhibitors, we did the antiproliferative evaluation of 18c against K562 cells, A549 cells and HepG2 cells using MTS assay as previously described. […]
(§19) The rate of cell survival under the action of test substances was evaluated by an improved MTS assay as previously described. In brief, A549 (5000 cells / well) , HepG2 (5000 cells / well), HEK293 (5000 cells / well) and K562 (1 ×10^4 cells/well) cell lines were seeded into 96-well plates in 100 µL medium. After overnight incubation, each well was added with different […]
as §10, §13
(§20) calculate and compare their selective index. […]
(§21) Unbound antibodies

[8] = system: A549 cells; test: MTS cell proliferation assay, A549; assay type: cell-based, human
Description: as §18, §19, §10, §13, §20, §21

[9] = system: HepG2 cells; test: MTS cell proliferation assay, HepG2; assay type: cell-based, human
Description: as §18, §19, §10, §13, §20, §21

[10] = system: HEK293; test: MTS cell proliferation assay, HEK293 (non-cancerous kidney cell); assay type: cell-based
Description: as §18, §19, §10, §13, §20, §21

[11] = Homo sapiens, MTS assay, 48 hours
[12] = concentration range of 10–500 µM, MTS

`O=C(CCCCCCC(=O)NCCCC[C@H](NC(=O)OCc1ccccc1)C(=O)Nc1ccccc1)NO` [Compound 18c] was tested, and the IC50 ([1]; BOC-Ac-Lys-AMC substrate, read-out: IC50 values, HeLa nuclear extract) was 0.5 ± 0.21 µM, the IC50 ([1]; as restated in the conclusion, read-out: IC50 value) was ~0.5 µM and the “HDAC inhibition (%)” value ([1]; compound at 100 µM, BOC-Ac-Lys-AMC substrate) was 109.2 ± 0.5%. The “HDAC Inhibition (%) HDACⅠ” value [2] was 61.06±1.064%, the “HDAC Inhibition (%) HDACⅡa” value [3] was 16.65±2.690% and the inhibition at 1 µM [4] was 38.3 ± 1.22%. For the same compound, the “acetylation levels of histone H3 and α-tubulin” value [5] was “dose-dependent increase”, the “acetylation levels of histone H3 and α-tubulin” value [6] was “dose-dependent increase” and the IC50 [7, 11] was 41.2 ± 1.73 µM. The “concentration showing antiproliferative activity comparable to SAHA (1) at 10 µM” value ([7]; MTS) was 50 to 100 µM, the antiproliferative activity [7, 12] was “dose-dependent manner” and the IC50 [8, 11] was 134 ± 2.13 µM. For the same compound, the “concentration showing antiproliferative activity comparable to SAHA (1) at 10 µM” value ([8]; MTS) was 50 to 100 µM, the antiproliferative activity [8, 12] was “dose-dependent manner” and the IC50 [9, 11] was 158 ± 2.2 µM. For the same compound, the “concentration showing antiproliferative activity comparable to SAHA (1) at 10 µM” value ([9]; MTS) was 200 µM, the antiproliferative activity [9, 12] was “dose-dependent manner” and the IC50 ([10]; Homo sapiens, HEK293, MTS assay, 48 hours, normal cells) was > 500 µM. For the same compound, the “selectivity index (SI)” value ([10]; normal cells (HEK293) versus tumor cells (K562, A549, HepG2) IC50s) was 3.16~12.14 and the “toxicity in non-cancerous kidney cell (HEK293) compared with SAHA (1)” value ([10]; same concentrations (5 µM and 10 µM), MTS) was “less toxicity”.
